Reference: EP0779296A2, “D-alpha-aminoalkanoyl-(S)-N-alpha-alkylbenzyl amides useful as intermediates for artificial sweeteners” (THE COCA-COLA COMPANY, priority 1992, dated 1994)
Where a SMILES comes first, the peptide text is derived from it.

Legend:
[1] = value adopted for the reference solution; cited from earlier work
[2] = Sweetness potency: four tasters compare dilutions of the test compound with a 200 ppm aspartame solution; assay type: in vivo; conditions: against 200 ppm aspartame solution, aspartame taken as 180 times sucrose
Procedure: The sweetness potency was determined by having four tasters compare the sweetness of various dilutions of the test compound with a 200 ppm equivalent solution of aspartame, wherein the sweetness of aspartame was taken to be 180 times sucrose. […]

[3] = reported in U.S. Patent No. 4,411,925; cited from earlier work
[4] = disclosed by Zeng et al.; cited from earlier work

Compound | Sweetness [2] | other results
COC(=O)[C@H](Cc1ccccc1)NC(=O)[C@@H](N)CC(=O)O [aspartame] (H-Asp-Phe-OMe) | – | sweetness of aspartame (adopted reference value) [1]: 180 times sucrose
C[C@@H](NC(=O)[C@@H](N)CC(=O)O)C(=O)NC(c1ccccc1)c1ccccc1 [Example 12, L-aspartyl-D-alanine-N-α-phenyl benzyl amide] | 180 times sucrose | –
C[C@H](NC(=O)[C@@H](C)NC(=O)[C@@H](N)CC(=O)O)c1ccccc1 [Example 2, L-aspartyl-D-alanine-N-(S)-α-methyl-benzylamide] | 180 times sucrose | –
CC(C)[C@@H](NC(=O)[C@@H](N)CC(=O)O)C(=O)N[C@@H](C)c1ccccc1 [Example 5, L-aspartyl-D-valine-N-(S)-α-methylbenzyl amide] | 540 times sucrose | –
C[C@@H](NC(=O)[C@@H](N)CC(=O)O)C(=O)NC(c1ccccc1)C(C)(C)C (stereo partly drawn) [Example 10, L-aspartyl-D-alanine-N-(R,S)-α-t-butylbenzyl amide] | 150 times sucrose | –
CC[C@H](NC(=O)[C@@H](CC)NC(=O)[C@@H](N)CC(=O)O)c1ccccc1 [Example 14, L-aspartyl-D-α-aminobutyric acid-N-(S)-α-ethylbenzyl amide] | 2500 x Sucrose | Sweetness ([2]; listed as L-aspartyl-D-α-aminobutyric-acid-(S)-N-α-alkylbenzyl amide): 2500 times sucrose
C[C@@H](NC(=O)[C@@H](N)CC(=O)O)C(=O)NC(C1CC1)C(C)(C)C (mixture of isomers) [L-aspartyl-D-alanine amide of (+/-) t-butyl-cyclopropyl methylamine] | – | sweetness potency (SP) [3]: 1200 times sucrose
CC(C)[C@@H](NC(=O)[C@@H](N)CC(=O)O)C(=O)NC(C1CC1)C1CC1 [R = isopropyl] | – | sweetness potency (SP) [3]: 110 times sucrose
CC[C@H](NC(=O)[C@H](NC(=O)[C@@H](N)CC(=O)O)C(C)C)c1ccccc1 [Example 15, L-aspartyl-D-valine-N-(S)-α-ethylbenzyl amide] | 1500 times sucrose | –
C[C@@H](NC(=O)[C@@H](N)CC(=O)O)C(=O)N[C@H](C)c1ccccc1 [Example 7, L-aspartyl-D-alanine-N-(R)-α-methylbenzyl amide] | less than 10 times sucrose | –
Cc1cccc(C)c1NC(=O)[C@@H](C)NC(=O)[C@@H](N)CC(=O)O [2,6-dimethyl-aniline amide] | – | sweetness potency [4]: 500 times the sweetness of sucrose
C[C@@H](NC(=O)[C@@H](N)CC(=O)O)C(=O)NC(C1CC1)C1CC1 [R = methyl] | – | sweetness potency (SP) [3]: 1200 times sucrose
C[C@@H](NC(=O)[C@@H](N)CC(=O)O)C(=O)NC(c1ccccc1)C1CC1 (stereo partly drawn) [Example 13, L-aspartyl-D-alanine-N-α-cyclopropyl benzyl amide] | 1,080 times sucrose | –
CC(C)C(NC(=O)[C@@H](C)NC(=O)[C@@H](N)CC(=O)O)c1ccccc1 (stereo partly drawn) [Example 9, L-aspartyl-D-alanine-N-(R,S)-α-isopropylbenzyl amide] | 180 times sucrose | –
CC[C@@H](NC(=O)[C@@H](N)CC(=O)O)C(=O)NC(C1CC1)C1CC1 [R = ethyl] | – | sweetness potency (SP) [3]: 500 times sucrose
CC[C@@H](NC(=O)[C@@H](N)CC(=O)O)C(=O)N[C@@H](C)c1ccccc1 [Example 3, L-aspartyl-D-α-aminobutyric-acid N-(S)-α-methylbenzyl amide] | 360 times sucrose | –
CCC[C@@H](NC(=O)[C@@H](N)CC(=O)O)C(=O)N[C@@H](C)c1ccccc1 [Example 4, L-aspartyl-D-α-aminopentanoic-acid-N-(S)-α-methylbenzyl amide] | 90 times sucrose | –
C[C@H](NC(=O)[C@H](NC(=O)[C@@H](N)CC(=O)O)c1ccccc1)c1ccccc1 [Example 6, L-aspartyl-D-phenylglycine-N-(S)-α-methylbenzyl amide] | 270 times sucrose | –
CCC(NC(=O)[C@@H](C)NC(=O)[C@@H](N)CC(=O)O)c1ccccc1 (stereo partly drawn) [Example 8, L-aspartyl-D-alanine-N-(R,S)-α-ethylbenzyl amide] | 270 times sucrose | –
CCCC(NC(=O)[C@@H](C)NC(=O)[C@@H](N)CC(=O)O)c1ccccc1 (stereo partly drawn) [Example 11, L-aspartyl-D-alanine-N-(R,S)-α-n-propylbenzyl amide] | 90 times sucrose | –
